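Briefly, cells in 96-well plates were exposed to five compound concentrations for 48 h, and endpoints were estimated by linear interpolation. TGI is the concentration that stops growth completely.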
Assays:
Assay in all cases: NCI anticancer screen, dose series, 48 h
[1] = system: PC-3 prostate
[2] = system: SF-539 CNS
[3] = system: SK-MEL-5 melanoma
[4] = system: SR leukemia
[5] = system: COLO 205 colon
[6] = system: HOP-62 NSCLC
[7] = system: MDA-N
[8] = system: A498 renal
[9] = system: A549 NSCLC
[10] = system: NCI-H23 lung
[11] = system: HOP-92 NSCLC
[12] = system: MOLT-4 leukemia
[13] = system: NCI/ADR-RES ovarian
[14] = system: HCT-15 colon
[15] = system: M14 melanoma
[16] = system: UACC-257 melanoma
[17] = system: RXF 393 renal
[18] = system: MDA-MB-231 breast
[19] = system: SK-OV-3 ovarian
[20] = system: SNB-19 CNS
[21] = system: HT29 colon
[22] = system: SF-268 CNS
[23] = system: SN12C renal
[24] = system: K-562 leukemia
[25] = system: BT-549 breast
[26] = system: SK-MEL-2 melanoma
[27] = system: OVCAR-4 ovarian
[28] = system: IGROV1 ovarian
[29] = system: SK-MEL-28 melanoma
[30] = system: SW-620 colon
[31] = system: CAKI-1 renal
[32] = system: OVCAR-5 ovarian
[33] = system: MALME-3M melanoma
[34] = system: UO-31 renal
[35] = system: MDA-MB-435
[36] = system: 786-0 renal
[37] = system: TK-10 renal
[38] = system: HL-60(TB) leukemia
[39] = system: DU-145 prostate
[40] = system: HCT-116 colon
[41] = system: MCF7 breast
[42] = system: UACC-62 melanoma
[43] = system: NCI-H522 lung
[44] = system: OVCAR-3 ovarian
[45] = system: T-47D breast
[46] = system: LOX IMVI melanoma
[47] = system: KM12 colon
[48] = system: HCC-2998 colon
[49] = system: EKVX NSCLC
[50] = system: SF-295 CNS
[51] = system: HS 578T breast
[52] = system: ACHN renal
[53] = system: OVCAR-8 ovarian
[54] = system: NCI-H226 lung
[55] = system: CCRF-CEM leukemia
[56] = system: SNB-75 CNS
[57] = system: NCI-H460 lung
[58] = system: RPMI-8226 leukemia
[59] = system: U251 CNS

Cc1ccc([N+](=O)[O-])cc1S(=O)(=O)Nc1ccc(C(=O)/C=C/c2cccs2)cc1
TGI [1]: 43.8 µM | TGI [2]: > 100 µM | TGI [3]: 33.1 µM | TGI [4]: 68.9 µM | TGI [5]: 95.9 µM | TGI [6]: 48 µM | TGI [7]: 73 µM | TGI [8]: 45.1 µM | TGI [9]: > 100 µM | TGI [10]: 46.1 µM | TGI [11]: > 100 µM | TGI [12]: 64.1 µM | TGI [13]: 59.3 µM | TGI [14]: 64.3 µM | TGI [15]: 45.3 µM | TGI [16]: 46.6 µM | TGI [17]: 32.9 µM | TGI [18]: 31.1 µM | TGI [19]: > 100 µM | TGI [20]: 55.9 µM | TGI [21]: 41.6 µM | TGI [22]: > 100 µM | TGI [23]: 74.8 µM | TGI [24]: > 100 µM | TGI [25]: 40.1 µM | TGI [26]: 41.8 µM | TGI [27]: 54.3 µM | TGI [28]: > 100 µM | TGI [29]: 58.7 µM | TGI [30]: 50.1 µM | TGI [31]: 38.8 µM | TGI [32]: > 100 µM | TGI [33]: > 100 µM | TGI [34]: 40.4 µM | TGI [35]: 32.7 µM | TGI [36]: 37.4 µM | TGI [37]: > 100 µM | TGI [38]: 62.9 µM | TGI [39]: 54.2 µM | TGI [40]: 35.8 µM | TGI [41]: 39.2 µM | TGI [42]: 32.1 µM | TGI [43]: 50.8 µM | TGI [44]: 39.2 µM | TGI [45]: 91.7 µM | TGI [46]: 45.2 µM | TGI [47]: 32.5 µM | TGI [48]: 34.6 µM | TGI [49]: 51.7 µM | TGI [50]: > 100 µM | TGI [51]: > 100 µM | TGI [52]: 87.6 µM | TGI [53]: > 100 µM | TGI [54]: 71.5 µM | TGI [55]: > 100 µM | TGI [56]: 36.9 µM | TGI [57]: > 100 µM | TGI [58]: > 100 µM

Cc1ccc([N+](=O)[O-])cc1S(=O)(=O)Nc1ccc(C2=NN(C(=O)c3ccccc3)C(c3ccccc3)C2)cc1 (stereo unspecified)
TGI [1]: > 100 µM | TGI [2]: 55.2 µM | TGI [3]: 30.4 µM | TGI [4]: > 100 µM | TGI [5]: 33.9 µM | TGI [6]: 72 µM | TGI [7]: 67.4 µM | TGI [8]: 51.3 µM | TGI [9]: > 100 µM | TGI [10]: 68.2 µM | TGI [11]: 62.9 µM | TGI [12]: > 100 µM | TGI [13]: > 100 µM | TGI [14]: > 100 µM | TGI [15]: > 100 µM | TGI [16]: 64.7 µM | TGI [17]: 57.3 µM | TGI [18]: 46.3 µM | TGI [19]: 73.7 µM | TGI [20]: > 100 µM | TGI [21]: > 100 µM | TGI [22]: > 100 µM | TGI [23]: 63.1 µM | TGI [24]: > 100 µM | TGI [25]: 96.9 µM | TGI [26]: 38.7 µM | TGI [27]: > 100 µM | TGI [28]: 95.2 µM | TGI [29]: > 100 µM | TGI [30]: > 100 µM | TGI [31]: > 100 µM | TGI [32]: > 100 µM | TGI [33]: 66.6 µM | TGI [34]: > 100 µM | TGI [35]: > 100 µM | TGI [36]: 48.2 µM | TGI [37]: 68.8 µM | TGI [38]: 81.8 µM | TGI [39]: > 100 µM | TGI [40]: > 100 µM | TGI [41]: 75.7 µM | TGI [43]: 58.2 µM | TGI [44]: 49 µM | TGI [45]: 97.5 µM | TGI [46]: > 100 µM | TGI [47]: > 100 µM | TGI [59]: > 100 µM | TGI [49]: 59.7 µM | TGI [50]: > 100 µM | TGI [51]: > 100 µM | TGI [52]: 93.6 µM | TGI [53]: > 100 µM | TGI [54]: 72.2 µM | TGI [55]: > 100 µM | TGI [56]: 49.9 µM | TGI [58]: > 100 µM

COP(=O)(OC)/C(=C/c1c[nH]c2ccccc12)C(=O)O
TGI [1]: > 100 µM | TGI [2]: > 100 µM | TGI [3]: > 100 µM | TGI [4]: > 100 µM | TGI [5]: > 100 µM | TGI [6]: > 100 µM | TGI [7]: > 100 µM | TGI [8]: > 100 µM | TGI [9]: > 100 µM | TGI [10]: > 100 µM | TGI [11]: > 100 µM | TGI [12]: > 100 µM | TGI [13]: > 100 µM | TGI [14]: > 100 µM | TGI [15]: > 100 µM | TGI [17]: > 100 µM | TGI [18]: > 100 µM | TGI [19]: > 100 µM | TGI [20]: > 100 µM | TGI [21]: > 100 µM | TGI [23]: > 100 µM | TGI [24]: > 100 µM | TGI [25]: > 100 µM | TGI [26]: > 100 µM | TGI [27]: > 100 µM | TGI [28]: > 100 µM | TGI [29]: > 100 µM | TGI [30]: > 100 µM | TGI [31]: > 100 µM | TGI [32]: > 100 µM | TGI [33]: > 100 µM | TGI [34]: > 100 µM | TGI [35]: > 100 µM | TGI [36]: > 100 µM | TGI [37]: > 100 µM | TGI [38]: > 100 µM | TGI [39]: > 100 µM | TGI [40]: > 100 µM | TGI [41]: > 100 µM | TGI [42]: > 100 µM | TGI [43]: > 100 µM | TGI [44]: > 100 µM | TGI [45]: > 100 µM | TGI [46]: > 100 µM | TGI [47]: > 100 µM | TGI [48]: > 100 µM | TGI [59]: > 100 µM | TGI [49]: > 100 µM | TGI [50]: > 100 µM | TGI [51]: > 100 µM | TGI [52]: > 100 µM | TGI [53]: > 100 µM | TGI [54]: > 100 µM | TGI [55]: > 100 µM | TGI [56]: > 100 µM | TGI [57]: > 100 µM | TGI [58]: > 100 µM
